Here are results for seven compounds from patent publication US5470830A, “Motilin-like polypeptides that inhibit gastrointestinal motor activity” (Ohmeda Pharmaceutical Products Division Inc., priority 1993, dated 1995).

Where a SMILES comes first, the peptide text is derived from it. [ ]: non-standard residue; d: D form. 3Pal = N[C@@H](Cc1cccnc1)C(=O)O

Test [1] addresses T1, motilin receptor (rabbit antral smooth muscle membranes) (Oryctolagus cuniculus, UniProt G1T803).
T1 construct: from tissue; host or cells: rabbit antral smooth muscle membranes
The test can be described thus: Motilin receptor binding affinity: displacement of [125I-Tyr7,Nle13]motilin(porcine). Particulars: negative logarithm of concentration displacing 50% of [125I-Tyr7,Nle13]motilin(porcine) from rabbit antral smooth muscle membranes; read-out: pIC50 (converted). The protocol:
The motilin receptor binding affinity of the peptides of this invention was determined by using the general procedure of Bormans, Peelers and Vantrappen, Regul. Pept., 15, 143-153 (1986). The ability of the peptides to displace [^125 I-Tyr^7,Nle^13 ]motilin(porcine) bound to rabbit antral smooth muscle membranes, was determined by testing twice, each time in duplicate, at concentrations ranging from 10^-11 to 10^-4 M. The concentration displacing 50% of the label (IC50) was determined by fitting the data to the equation describing displacement, assuming a single class of motilin receptors to which labeled and non-labeled motilin bind with equal affinity and non-cooperatively. Fitting was performed using the iterative least-squares procedure of the SAS-software package (SAS Institute, Inc., Cary, N.C., U.S.A.). […] The concentration displacing 50% of the label is expressed using its negative logarithm (pIC50).
On the technique in general: In a radioligand displacement assay an active substance lowers the binding of a labelled ligand.

Test [2] deals with segments of rabbit duodenum (Oryctolagus cuniculus, UniProt G1T803). The test can be described thus: Rabbit duodenal smooth muscle strip tissue bath assay (contractile response). Conditions: contractility; negative logarithm of dose giving 50% of maximal response to motilin; compounds tested 10^-11 to 10^-4 M. The class given is cell-based. The protocol:
The experimental protocol consisted of an equilibration period of 1 hour: a challenge with 10^-4 M acetylcholine followed by a wash-out period; a cumulative dose-response curve of a compound with, at the end, the addition of 10^-7 M motilin; and finally 10^-4 M acetylcholine. If the final response to 10^-4 M acetylcholine differed by more than 5% from the initial response, the results were discarded.

The next test has as its target T2, motilin receptor (Oryctolagus cuniculus, UniProt G1T803).
T2 construct: segments of rabbit duodenum; from tissue; host or cells: segments of rabbit duodenum
The test can be described thus: Motilin receptor antagonism: contractile response of rabbit duodenum to motilin in presence of compound. The class given is cell-based. How it is done:
To determine motilin receptor antagonism, the contractile response of segments of rabbit duodenum to motilin was determined isotonically in the tissue bath in the presence of a fixed concentration of the compound of interest. The experimental protocol consisted of an equilibration period of 1 hour; a challenge with 10^-4 M acetylcholine followed by a wash-out period; a cumulative motilin dose-response curve in the presence of the motilin receptor antagonist; and finally a challenge with 10^-4 M acetylcholine. If the final response to 10^-4 M acetylcholine differed by more than 5% from the initial response, the results were discarded. The point corresponding to 50% of the maximal response to motilin (Emax) was determined by fitting the equation
through the data points. The dose of motilin giving 50% of the response is expressed using its negative logarithm (pEC50). Compounds of interest were tested at concentrations of 10^-8 to 10^-5 M.

T1 sequence (G1T803 1-400): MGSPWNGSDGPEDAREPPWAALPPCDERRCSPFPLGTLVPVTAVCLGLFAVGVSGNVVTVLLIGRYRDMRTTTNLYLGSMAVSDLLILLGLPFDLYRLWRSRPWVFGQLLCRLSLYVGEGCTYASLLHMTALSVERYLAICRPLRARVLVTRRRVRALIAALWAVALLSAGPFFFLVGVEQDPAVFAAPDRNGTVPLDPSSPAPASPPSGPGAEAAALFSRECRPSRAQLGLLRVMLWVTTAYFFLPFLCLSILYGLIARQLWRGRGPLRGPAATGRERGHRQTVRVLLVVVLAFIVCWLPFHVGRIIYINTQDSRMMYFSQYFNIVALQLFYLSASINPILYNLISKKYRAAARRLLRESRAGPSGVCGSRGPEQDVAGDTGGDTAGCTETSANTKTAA
Chain of segments of rabbit duodenum (G1T803 1-400): as above
T2 sequence (G1T803 1-400): as above

In general, pEC50 refers to the EC50 on a negative log10 scale, so that one unit is a factor of ten. Low readings indicate a high EC50, high ones a low EC50. `CC[C@H](C)[C@H](NC(=O)[C@H](Cc1cccnc1)NC(=O)[C@@H](NC(=O)[C@@H](N)Cc1ccccc1)C(C)C)C(=O)N[C@@H](Cc1ccccc1)C(=O)N[C@H](C(=O)N[C@@H](Cc1ccc(O)cc1)C(=O)NCC(=O)N[C@@H](CCC(=O)O)C(=O)N[C@@H](CC(C)C)C(=O)N[C@@H](CCC(N)=O)C(=O)N[C@@H](CCCNC(=N)N)C(=O)N[C@@H](CC(C)C)C(=O)N[C@@H](CCC(N)=O)C(=O)O)[C@@H](C)O` [[Pal^3, Leu^13]pMOT(1-14), H-Phe-Val-Pal-Ile-Phe-Thr-Tyr-Gly-Glu-Leu-Gln-Arg-Leu-Gln-OH] (H-FV[3Pal]IFTYGELQRLQ-OH): the IC50 in test [1] is 158 nM. Also, the pEC50 in test [2] is reported as < 4.5.
As to “H-FVFIFTYGELARLQ-OH [[Phe^3, Ala^11, Leu^13]pMOT(1-14), H-Phe-Val-Phe-Ile-Phe-Thr-Tyr-Gly-Glu-Leu-Ala-Arg-Leu-Gln-OH]”, the IC50 in test [1] was 15.8 nM. The negative logarithm of the EC50 (pEC50) in test [2] is recorded as < 4.5.
Regarding `CC[C@H](C)[C@H](NC(=O)[C@H](Cc1ccccc1)NC(=O)[C@@H](NC(=O)[C@@H](N)Cc1ccccc1)C(C)C)C(=O)N[C@@H](Cc1ccccc1)C(=O)N[C@H](C(=O)N[C@@H](Cc1ccc(O)cc1)C(=O)N[C@H](C)C(=O)N[C@@H](CCC(=O)O)C(=O)N[C@@H](CC(C)C)C(=O)N[C@@H](CCC(N)=O)C(=O)N[C@@H](CCCNC(=N)N)C(=O)N[C@@H](CC(C)C)C(=O)N[C@@H](CCC(N)=O)C(=O)O)[C@@H](C)O` [[Phe^3, D-Ala^8, Leu^13]pMOT(1-14), H-Phe-Val-Phe-Ile-Phe-Thr-Tyr-D-Ala-Glu-Leu-Gln-Arg-Leu-Gln-OH] (H-FVFIFTY[dA]ELQRLQ-OH), the IC50 in test [1] is 49 nM. The pEC50 in test [2] was < 4.5.
For “H-FLFIFTYGELQRLQ-OH [[Leu^2, Phe^3, Leu^13]pMOT(1-14), H-Phe-Leu-Phe-Ile-Phe-Thr-Tyr-Gly-Glu-Leu-Gln-Arg-Leu-Gln-OH]”, in test [1], the IC50 is 33.9 nM. For the same compound, in test [2], the negative-log EC50 (pEC50) is reported as < 4.5.
For “H-FVFIFTYGELQRLK-NH2 [[Phe^3, Leu^13, Lys^14]pMOT(1-14) amide, H-Phe-Val-Phe-Ile-Phe-Thr-Tyr-Gly-Glu-Leu-Gln-Arg-Leu-Lys-NH2]” the same measures were 1.58 nM and < 4.5.
For `CC[C@H](C)[C@H](NC(=O)[C@H](Cc1ccccc1)NC(=O)[C@@H](NC(=O)[C@@H](N)Cc1ccccc1)C(C)C)C(=O)N[C@@H](Cc1ccccc1)C(=O)N[C@H](C(=O)N[C@@H](Cc1ccc(O)cc1)C(=O)NCC(=O)N[C@@H](CCC(=O)O)C(=O)N[C@@H](CC(C)C)C(=O)N[C@@H](CCC(N)=O)C(=O)N[C@H](CCCNC(=N)N)C(=O)N[C@@H](CC(C)C)C(=O)N[C@@H](CCC(N)=O)C(=O)O)[C@@H](C)O` [[Phe^3, D-Arg^12, Leu^13]pMOT(1-14)] (H-FVFIFTYGELQ[dR]LQ-OH), the IC50 in test [1] was 81.3 nM. Further, the pEC50 in test [2] is < 4.5.
Consider “H-FVFIFTYGELQRLQ-OH [[Phe^3, Leu^13]pMOT(1-14), H-Phe-Val-Phe-Ile-Phe-Thr-Tyr-Gly-Glu-Leu-Gln-Arg-Leu-Gln-OH]”, for which the IC50 in test [1] was 16.2 nM. The pEC50 in test [2] is recorded as < 4.5. Besides, the “block of the full contractile response to motilin” value on motilin receptor (compound at 10^-5 M) is “completely blocked”. Also, the “shift of the dose-response curve of motilin” value at motilin receptor (compound at 10^-6 M) is recorded as “shifted by about one log unit”.
